Measured values: patent publication US11292801B2, “Calpain modulators and therapeutic uses thereof” (Blade Therapeutics, Inc., priority 2016, dated 2022)
Read-outs that look alike come from different tables or passages of the source. Values belong to the molecule of their own block, whether it stands above or below them.

What was measured:
[1] = rcm bond
Human Calpain 1/NS1 = target: T1, Human Calpain 1/NS1 (Homo sapiens, UniProt P07384); assay: Biochemical inhibition of calpain 1, continuous fluorescence (FRET substrate) assay; conditions: mean, read-out: Human Calpain 1/NS1 IC50 (nM)_MEAN
T1 sequence (P07384 1-714): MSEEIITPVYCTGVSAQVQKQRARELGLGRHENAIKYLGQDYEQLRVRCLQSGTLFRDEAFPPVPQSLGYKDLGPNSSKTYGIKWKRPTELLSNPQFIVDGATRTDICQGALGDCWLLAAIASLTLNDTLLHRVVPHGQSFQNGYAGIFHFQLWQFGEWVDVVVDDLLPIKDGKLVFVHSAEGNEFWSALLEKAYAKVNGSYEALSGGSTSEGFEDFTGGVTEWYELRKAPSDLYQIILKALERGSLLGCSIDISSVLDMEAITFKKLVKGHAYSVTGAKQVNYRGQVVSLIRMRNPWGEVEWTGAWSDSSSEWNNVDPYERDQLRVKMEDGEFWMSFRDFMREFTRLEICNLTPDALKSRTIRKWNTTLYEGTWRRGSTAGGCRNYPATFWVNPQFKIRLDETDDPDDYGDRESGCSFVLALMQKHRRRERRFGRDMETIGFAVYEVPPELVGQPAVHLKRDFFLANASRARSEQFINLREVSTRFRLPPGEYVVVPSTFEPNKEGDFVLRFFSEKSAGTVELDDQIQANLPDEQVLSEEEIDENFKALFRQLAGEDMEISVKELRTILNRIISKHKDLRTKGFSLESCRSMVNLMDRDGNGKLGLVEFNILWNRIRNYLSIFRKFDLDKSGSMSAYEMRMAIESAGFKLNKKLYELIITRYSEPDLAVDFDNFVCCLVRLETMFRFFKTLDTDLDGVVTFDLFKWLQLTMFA
T1 sequence (P04632 1-268 partner): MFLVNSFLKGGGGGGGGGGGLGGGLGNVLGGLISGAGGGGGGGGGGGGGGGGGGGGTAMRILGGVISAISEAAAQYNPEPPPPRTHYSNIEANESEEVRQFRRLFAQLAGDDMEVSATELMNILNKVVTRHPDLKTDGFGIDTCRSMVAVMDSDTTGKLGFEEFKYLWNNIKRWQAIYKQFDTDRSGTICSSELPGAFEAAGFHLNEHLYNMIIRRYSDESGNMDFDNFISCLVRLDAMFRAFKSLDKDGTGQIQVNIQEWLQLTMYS
Summary of the method: (§1)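 IC50 values come from 4-parameter fits of progress-curve rates (1-5 min slopes) against log inhibitor concentration. Calpain and inhibitor premixed at ambient 25C in Tris pH ~7.5/NaCl/DTT buffer, then CaCl2 and FRET substrate added to activate; 5-FAM fluorescence (ex 490/em 520) followed 10 min.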

Human Calpain 9/NS1 = target: T2, Human Calpain 9/NS1 (Homo sapiens, UniProt O14815); assay: Biochemical inhibition of calpain 9, continuous fluorescence (FRET substrate) assay; conditions: mean, read-out: Human Calpain 9/NS1 IC50 (nM)_MEAN
T2 sequence (O14815 1-690): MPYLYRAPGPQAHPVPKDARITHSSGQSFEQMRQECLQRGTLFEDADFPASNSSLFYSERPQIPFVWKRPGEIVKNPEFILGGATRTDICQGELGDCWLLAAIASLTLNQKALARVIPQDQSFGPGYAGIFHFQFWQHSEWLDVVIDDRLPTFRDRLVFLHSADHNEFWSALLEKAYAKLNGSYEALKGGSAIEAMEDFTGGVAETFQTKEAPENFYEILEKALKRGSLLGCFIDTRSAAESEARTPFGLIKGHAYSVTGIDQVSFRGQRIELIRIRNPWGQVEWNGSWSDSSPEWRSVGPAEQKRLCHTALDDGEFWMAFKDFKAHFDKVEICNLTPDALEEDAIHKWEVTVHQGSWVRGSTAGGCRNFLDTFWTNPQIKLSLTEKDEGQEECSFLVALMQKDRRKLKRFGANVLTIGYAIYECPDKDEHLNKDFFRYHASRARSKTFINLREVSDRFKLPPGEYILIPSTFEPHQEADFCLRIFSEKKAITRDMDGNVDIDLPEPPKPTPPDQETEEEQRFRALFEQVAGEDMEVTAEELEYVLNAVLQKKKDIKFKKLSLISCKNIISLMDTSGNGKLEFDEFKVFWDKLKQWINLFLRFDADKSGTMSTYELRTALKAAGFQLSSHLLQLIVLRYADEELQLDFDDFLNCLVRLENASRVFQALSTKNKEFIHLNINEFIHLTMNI
T2 sequence (P04632 1-268 partner): T1 sequence (P04632 1-268 partner)
Summary of the method: as §1

Human Calpain 2/NS1 = target: T3, Human Calpain 2/NS1 (Homo sapiens, UniProt P17655); assay: Biochemical inhibition of calpain 2, continuous fluorescence (FRET substrate) assay; conditions: mean, read-out: Human Calpain 2/NS1 IC50 (nM)_MEAN
T3 sequence (P17655 1-700): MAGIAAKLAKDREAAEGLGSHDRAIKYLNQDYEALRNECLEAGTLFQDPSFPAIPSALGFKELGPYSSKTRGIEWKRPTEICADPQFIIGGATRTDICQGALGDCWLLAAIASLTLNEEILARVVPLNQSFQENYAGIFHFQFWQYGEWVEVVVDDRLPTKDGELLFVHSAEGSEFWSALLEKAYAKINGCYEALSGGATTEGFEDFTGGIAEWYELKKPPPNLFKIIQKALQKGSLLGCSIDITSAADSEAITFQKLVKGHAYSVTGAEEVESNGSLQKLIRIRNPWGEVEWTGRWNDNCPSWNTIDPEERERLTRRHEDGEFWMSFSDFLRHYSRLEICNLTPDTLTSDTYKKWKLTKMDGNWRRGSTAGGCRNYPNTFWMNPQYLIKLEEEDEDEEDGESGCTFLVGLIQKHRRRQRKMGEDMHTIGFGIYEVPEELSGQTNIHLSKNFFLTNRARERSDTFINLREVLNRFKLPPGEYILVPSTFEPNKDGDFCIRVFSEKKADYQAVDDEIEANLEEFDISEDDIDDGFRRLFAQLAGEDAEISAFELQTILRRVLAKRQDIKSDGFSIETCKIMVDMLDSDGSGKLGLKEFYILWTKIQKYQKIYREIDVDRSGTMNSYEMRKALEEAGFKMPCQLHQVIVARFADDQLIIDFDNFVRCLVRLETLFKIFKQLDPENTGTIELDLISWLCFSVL
T3 sequence (P04632 1-268 partner): T1 sequence (P04632 1-268 partner)
Summary of the method: as §1

Structure (SMILES): CCOC(=O)[C@@H]1CC=CCCCCCc2ccccc2C(=O)N1
ring closure, yield of all isomers ([1]; from C=CCCCCCc1ccccc1C(=O)N[C@@H](CC=C)C(=O)OCC, Grubbs 2nd generation catalyst, DCM, 8.31 mM, 50.0 °C, 14.0 h): 18.1%

Structure (SMILES): COC(=O)[C@@H]1Cc2ccc(cc2)OCC=CCOc2cccc(c2)-c2ccn(n2)-c2ncccc2C(=O)N1
ring closure, yield of all isomers ([1]; from C=CCOc1ccc(C[C@H](NC(=O)c2cccnc2-n2ccc(-c3cccc(OCC=C)c3)n2)C(=O)OC)cc1, Grubbs II, 1,2-dichloroethane, 8.35 mM, 90.0 °C, 48.0 h): 47%

Structure (SMILES): COC(=O)[C@@H]1Cc2ccc(cc2)CC=CCc2ccc3nn(cc3c2)-c2ncccc2C(=O)N1
ring closure, yield of all isomers ([1]; from C=CCc1ccc(C[C@H](NC(=O)c2cccnc2-n2cc3cc(CC=C)ccc3n2)C(=O)OC)cc1, Zhan catalyst-1B, DCE, 3.09 mM, 90.0 °C, 14.0 h): 19.4%

Structure (SMILES): CON(C)C(=O)[C@@H]1CC=CCCOc2ccnc(c2)-c2ccccc2C(=O)N1
ring closure, yield of all isomers ([1]; from C=CCCOc1ccnc(-c2ccccc2C(=O)N[C@@H](CC=C)C(=O)N(C)OC)c1, Zhan Catalyst-1B, DCE, 2.87 mM, 95.0 °C, 16.0 h): 43.4%

Structure (SMILES): CON(C)C(=O)[C@@H]1CC=CCOCCOCc2ccccc2C(=O)N1
ring closure, yield of all isomers ([1]; from C=CCOCCOCc1ccccc1C(=O)N[C@@H](CC=C)C(=O)N(C)OC, Grubbs 2nd generation catalyst, DCE, 6.64 mM, 80.0 °C, 10.0 h): 86.7%
ring closure, yield of all isomers ([1]; from C=CCOCCOCc1ccccc1C(=O)N[C@@H](CC=C)C(=O)N(C)OC, Grubbs II, 1,2-dichloroethane, 6.64 mM, 80.0 °C, 10.0 h): 91.3%

Structure (SMILES): COC(=O)[C@@H]1Cc2ccc(cc2)CC=CCc2cccc(c2)-c2ccn(n2)-c2ncccc2C(=O)N1
ring closure, yield of all isomers ([1]; from C=CCc1ccc(C[C@H](NC(=O)c2cccnc2-n2ccc(-c3cccc(CC=C)c3)n2)C(=O)OC)cc1, Hoveyda-Grubbs catalyst 1st generation, DCE, 4.94 mM, 90.0 °C, 64.0 h): 43.6%

Structure (SMILES): CON(C)C(=O)[C@@H]1CC=CCCCCCc2ncccc2C(=O)N1
ring closure, yield of all isomers ([1]; from C=CCCCCCc1ncccc1C(=O)N[C@@H](CC=C)C(=O)N(C)OC, Grubbs catalyst 2nd generation, DCE, 9.93 mM, 95.0 °C, 48.0 h): 65.1%

IC50 (Human Calpain 1/NS1): 3000 to 10000 nM
IC50 (Human Calpain 9/NS1): < 3000 nM
IC50 (Human Calpain 2/NS1): < 3000 nM
Structure (SMILES): CCOc1ccccc1CNC(=O)C(=O)C1CCCCOCCOCc2ccccc2C(=O)N1 (stereo not drawn) [Compound 102, N-(2-ethoxybenzyl)-2-oxo-2-(12-oxo-1,3,4,6,7,8,9,10,11,12-decahydrobenzo[f][1,4]dioxa[9]azacyclotetradecin-10-yl)acetamide]

IC50 (Human Calpain 1/NS1): 3000 to 10000 nM
IC50 (Human Calpain 9/NS1): < 3000 nM
IC50 (Human Calpain 2/NS1): < 3000 nM
Structure (SMILES): O=C(NCCc1ccc(Cl)cc1)C(=O)[C@@H]1CCCCOCCOCc2ccccc2C(=O)N1 [Compound 128, (S)—N-(4-chlorophenethyl)-2-oxo-2-(12-oxo-1,3,4,6,7,8,9,10,11,12-decahydrobenzo[f][1,4]dioxa[9]azacyclotetradecin-10-yl)acetamide]

Structure (SMILES): CON(C)C(=O)[C@@H]1CC=CCCCCCc2ccccc2C(=O)N1
ring closure, yield of all isomers ([1]; from C=CCCCCCc1ccccc1C(=O)N[C@@H](CC=C)C(=O)N(C)OC, Grubbs 2nd generation catalyst, DCM, 6.37 mM, 48.0 °C, 16.0 h): 49.4%

IC50 (Human Calpain 1/NS1): > 10000 nM
IC50 (Human Calpain 9/NS1): > 10000 nM
IC50 (Human Calpain 2/NS1): > 10000 nM
Structure (SMILES): CC(C)(NC(=O)C(=O)C1CCCCOCCOCc2ccccc2C(=O)N1)c1cccnc1 (stereo not drawn) [Compound 124, 2-Oxo-2-(12-oxo-1,3,4,6,7,8,9,10,11,12-decahydrobenzo[f][1,4]dioxa[9]azacyclotetradecin-10-yl)-N-(2-(pyridin-3-yl)propan-2-yl)acetamide]
